Experimental data reported in patent publication US8916570B2 (The United States of America, as represented by the …, priority 2008, dated 2014).
Where a chain is given by its changes, count along the chain named. Read-outs that look alike come from different tables or passages of the source. Marks after values point to notes of the source that are not given here. Blank lines part the entries; values can stand above or below the compound they belong to.

Legend:
[1] = target: T1, human A3 receptor (Homo sapiens, UniProt P0DMS8); experiment: Binding assay at the human A3 receptor, CHO membranes (Example 4)
T1 sequence (P0DMS8 1-318): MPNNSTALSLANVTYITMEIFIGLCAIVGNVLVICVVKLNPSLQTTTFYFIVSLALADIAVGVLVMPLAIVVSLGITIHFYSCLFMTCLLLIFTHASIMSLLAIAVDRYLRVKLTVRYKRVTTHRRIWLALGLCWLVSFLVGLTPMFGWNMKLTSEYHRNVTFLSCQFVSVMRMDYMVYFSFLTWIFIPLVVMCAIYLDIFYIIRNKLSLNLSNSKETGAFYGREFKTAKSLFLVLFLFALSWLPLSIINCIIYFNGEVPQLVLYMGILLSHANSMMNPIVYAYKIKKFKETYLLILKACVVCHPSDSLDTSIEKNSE

[2] = target: T2, human A1 receptors (Homo sapiens, UniProt P30542); experiment: Binding at human A1 receptor, CHO membranes (Example 4); conditions: read-out: Affinity (Ki nM) A1
T2 construct: expressed in transfected cells; host or cells: CHO
T2 sequence (P30542 1-326): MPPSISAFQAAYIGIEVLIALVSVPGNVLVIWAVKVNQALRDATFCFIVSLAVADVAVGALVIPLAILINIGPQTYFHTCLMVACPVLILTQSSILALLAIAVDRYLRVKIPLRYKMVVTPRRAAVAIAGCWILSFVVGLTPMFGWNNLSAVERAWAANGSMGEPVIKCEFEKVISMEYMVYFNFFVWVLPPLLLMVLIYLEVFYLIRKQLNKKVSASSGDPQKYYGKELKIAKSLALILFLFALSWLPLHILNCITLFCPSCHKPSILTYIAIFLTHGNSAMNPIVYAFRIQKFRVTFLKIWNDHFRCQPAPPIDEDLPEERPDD

[3] = target: T3, human A2A receptors (Homo sapiens, UniProt P29274); experiment: Binding at human A2A receptor, HEK-293 membranes (Example 4); conditions: read-out: Affinity (Ki nM) A2A
T3 construct: expressed in transfected cells
T3 sequence (P29274 whole entry): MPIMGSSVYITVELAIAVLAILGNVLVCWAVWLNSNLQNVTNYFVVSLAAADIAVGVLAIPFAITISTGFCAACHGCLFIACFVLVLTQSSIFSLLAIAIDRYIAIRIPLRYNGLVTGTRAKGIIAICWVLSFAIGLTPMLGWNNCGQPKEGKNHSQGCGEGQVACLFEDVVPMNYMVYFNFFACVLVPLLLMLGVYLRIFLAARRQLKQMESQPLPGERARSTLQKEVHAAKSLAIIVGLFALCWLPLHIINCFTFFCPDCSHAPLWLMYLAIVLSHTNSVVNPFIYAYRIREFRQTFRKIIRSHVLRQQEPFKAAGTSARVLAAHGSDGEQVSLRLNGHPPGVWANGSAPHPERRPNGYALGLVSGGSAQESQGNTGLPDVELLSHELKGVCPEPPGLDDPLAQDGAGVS

[4] = target: T4, rat A3 AR (Rattus norvegicus, UniProt P28647); conditions: species R (rat); data from Tchilibon et al. / Lee et al.; cited from earlier work
T4 sequence (P28647 1-320): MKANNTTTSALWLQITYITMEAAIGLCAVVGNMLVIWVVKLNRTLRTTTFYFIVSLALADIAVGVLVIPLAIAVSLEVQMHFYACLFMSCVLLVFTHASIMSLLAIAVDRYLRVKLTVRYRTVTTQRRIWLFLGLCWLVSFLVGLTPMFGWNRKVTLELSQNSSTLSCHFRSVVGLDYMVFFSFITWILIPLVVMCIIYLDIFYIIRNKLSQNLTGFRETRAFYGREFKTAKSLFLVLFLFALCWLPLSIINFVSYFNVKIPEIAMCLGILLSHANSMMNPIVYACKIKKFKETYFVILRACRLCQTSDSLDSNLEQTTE

[5] = target: mouse A2A adenosine receptor (Mus musculus, UniProt Q60613); experiment: Competition radioligand binding, mouse A2A AR, HEK293 membranes (Table 1); conditions: read-out: A2A Ki; species M (mouse); [3H]CGS21680
mouse A2A adenosine receptor, sequence (Q60613 whole entry): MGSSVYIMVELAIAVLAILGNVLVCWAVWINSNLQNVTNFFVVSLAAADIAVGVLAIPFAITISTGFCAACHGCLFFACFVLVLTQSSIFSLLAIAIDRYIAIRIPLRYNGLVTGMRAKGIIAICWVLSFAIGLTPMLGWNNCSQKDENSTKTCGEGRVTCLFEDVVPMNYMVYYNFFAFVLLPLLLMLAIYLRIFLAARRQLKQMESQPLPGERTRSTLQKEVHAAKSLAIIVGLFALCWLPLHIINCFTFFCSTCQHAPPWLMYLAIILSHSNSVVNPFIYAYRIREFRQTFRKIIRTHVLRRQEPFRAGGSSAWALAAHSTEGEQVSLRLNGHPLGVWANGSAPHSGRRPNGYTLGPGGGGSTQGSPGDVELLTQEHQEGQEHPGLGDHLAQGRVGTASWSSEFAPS

[6] = target: T5, human A2A adenosine receptor (Homo sapiens, UniProt P29274); parameters: expressed in transfected cells; conditions: species H (human), cited from earlier work; for Ki: data from Tchilibon et al. or Kim et al.
T5 sequence (P29274 whole entry): as the sequence (P29274 whole entry) above

[7] = target: T6, mouse A3 adenosine receptor (Mus musculus, UniProt Q61618); experiment: Competition radioligand binding, mouse A3 AR, HEK293 membranes (Table 1); conditions: for Selectivity A1/A3: mouse; for Ki: read-out: A3 Ki, species M (mouse), [125I]I-AB-MECA
T6 sequence (Q61618 1-319): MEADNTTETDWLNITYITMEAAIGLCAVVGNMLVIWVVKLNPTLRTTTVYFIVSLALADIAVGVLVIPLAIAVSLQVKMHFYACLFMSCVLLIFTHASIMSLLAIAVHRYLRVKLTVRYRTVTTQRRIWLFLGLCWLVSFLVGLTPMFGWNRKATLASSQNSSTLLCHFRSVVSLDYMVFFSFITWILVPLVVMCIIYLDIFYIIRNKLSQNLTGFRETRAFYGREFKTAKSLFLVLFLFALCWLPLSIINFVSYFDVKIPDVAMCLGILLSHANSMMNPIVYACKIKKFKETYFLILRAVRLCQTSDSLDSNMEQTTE

[8] = target: T7, human A3 adenosine receptor (Homo sapiens, UniProt P0DMS8); parameters: expressed in transfected cells; host or cells: CHO; conditions: species H (human); data from Tchilibon et al. or Kim et al.; cited from earlier work
T7 sequence (P0DMS8 1-318): T1 sequence (P0DMS8 1-318)

[9] = target: T8, mouse A1 adenosine receptor (Mus musculus, UniProt Q60612); experiment: Competition radioligand binding, mouse A1 AR, HEK293 membranes (Table 1); conditions: read-out: A1 Ki; species M (mouse); [125I]I-AB-MECA; mean ± SEM
T8 sequence (Q60612 1-326): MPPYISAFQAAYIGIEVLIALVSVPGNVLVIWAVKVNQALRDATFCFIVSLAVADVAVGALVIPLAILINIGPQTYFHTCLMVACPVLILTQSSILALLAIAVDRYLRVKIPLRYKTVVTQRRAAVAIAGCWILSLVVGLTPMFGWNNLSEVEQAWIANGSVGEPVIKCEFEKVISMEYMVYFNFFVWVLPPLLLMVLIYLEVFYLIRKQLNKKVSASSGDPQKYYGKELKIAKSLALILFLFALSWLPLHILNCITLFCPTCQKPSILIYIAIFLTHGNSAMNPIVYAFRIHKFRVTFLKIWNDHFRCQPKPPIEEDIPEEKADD

[10] = target: T9, human A1 adenosine receptor (Homo sapiens, UniProt P30542); parameters: expressed in transfected cells; host or cells: CHO; conditions: species H (human); data from Tchilibon et al. or Kim et al.; cited from earlier work
T9 sequence (P30542 1-326): T2 sequence (P30542 1-326)

[11] = target: T4, rat A3 AR; experiment: Radioligand binding, rat A3 AR (Table 1); conditions: species R (rat)
[12] = target: T10, hA3AR (Homo sapiens, UniProt P0DMS8); conditions: at 10 μM vs maximal effect of 51 (= 100%); values from the literature; cited from earlier work
T10 construct: expressed in transfected cells; host or cells: CHO
T10 sequence (P0DMS8 1-318): T1 sequence (P0DMS8 1-318)

[13] = target: T11, hA1AR (Homo sapiens, UniProt P30542); conditions: values from the literature (footnotes c, d); read-out: Affinity (Ki, nM) hA1; cited from earlier work
T11 construct: expressed in transfected cells; host or cells: CHO
T11 sequence (P30542 1-326): T2 sequence (P30542 1-326)

[14] = target: T9, human A1 adenosine receptor; experiment: Radioligand binding, human A1 AR, CHO membranes (Table 1); conditions: read-out: A1 Ki; species H (human)
[15] = target: T12, mA2AAR (Mus musculus, UniProt Q60613); conditions: values from Melman et al.; read-out: Affinity (Ki, nM) mA2A; cited from earlier work
T12 construct: expressed in transfected cells
T12 sequence (Q60613 whole entry): as the sequence (Q60613 whole entry) above

[16] = target: T13, rat A1 AR (Rattus norvegicus, UniProt P25099); conditions: species R (rat); data from Lee et al.; cited from earlier work
T13 sequence (P25099 1-326): T8 sequence (Q60612 1-326) with E151V, A155D, I157R, E316D, I319L, D325E

[17] = target: rat A2A AR (Rattus norvegicus, UniProt P30543); conditions: species R (rat); data from Lee et al.; cited from earlier work
rat A2A AR, sequence (P30543 whole entry): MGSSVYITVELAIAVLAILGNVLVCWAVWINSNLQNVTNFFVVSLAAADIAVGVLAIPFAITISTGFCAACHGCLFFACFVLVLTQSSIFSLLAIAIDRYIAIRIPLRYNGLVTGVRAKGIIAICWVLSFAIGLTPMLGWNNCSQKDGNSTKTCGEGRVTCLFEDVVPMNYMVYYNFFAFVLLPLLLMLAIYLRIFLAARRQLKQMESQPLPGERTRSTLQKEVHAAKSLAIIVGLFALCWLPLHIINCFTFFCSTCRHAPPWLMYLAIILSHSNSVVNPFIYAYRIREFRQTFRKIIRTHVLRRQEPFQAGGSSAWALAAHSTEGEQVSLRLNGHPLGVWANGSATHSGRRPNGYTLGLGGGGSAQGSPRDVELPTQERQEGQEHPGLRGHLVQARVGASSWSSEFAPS

[18] = target: T14, hA2AAR (Homo sapiens, UniProt P29274); conditions: cited from earlier work; for Ki: values from the literature (footnotes c, d), read-out: Affinity (Ki, nM) hA2A
T14 construct: expressed in transfected cells
T14 sequence (P29274 whole entry): as the sequence (P29274 whole entry) above

[19] = target: T15, mA3AR (Mus musculus, UniProt Q61618); conditions: values from Melman et al.; read-out: Affinity (Ki, nM) mA3; cited from earlier work
T15 construct: expressed in transfected cells
T15 sequence (Q61618 1-319): T6 sequence (Q61618 1-319)

[20] = target: T5, human A2A adenosine receptor; experiment: Radioligand binding, human A2A AR (Table 1); conditions: read-out: A2A Ki; species H (human)
[21] = target: T16, mA1AR (Mus musculus, UniProt Q60612); conditions: values from Melman et al.; read-out: Affinity (Ki, nM) mA1; cited from earlier work
T16 construct: expressed in transfected cells
T16 sequence (Q60612 1-326): T8 sequence (Q60612 1-326)

[22] = target: T17, human A3AR (Homo sapiens, UniProt P0DMS8); experiment: Inhibition of forskolin-stimulated cyclic AMP production in AR transfected CHO cells (Table 1); type: cell-based; conditions: at 10 μM, in comparison to maximal effect of full agonist 5′-N-ethylcarboxamidoadenosine at 100%
T17 construct: expressed in transfected cells; host or cells: CHO
T17 sequence (P0DMS8 1-318): T1 sequence (P0DMS8 1-318)

[23] = target: T7, human A3 adenosine receptor; experiment: [125I]I-AB-MECA binding, human A3 AR, CHO membranes (Table 1)
[24] = target: T10, hA3AR; conditions: values from the literature (footnotes c, d); read-out: Affinity (Ki, nM) hA3; cited from earlier work

SMILES: OC1C(O)C(n2cnc3c(NC4CC4c4ccccc4)nc(Cl)nc32)C2CC12 (stereo not drawn) [Compound 113b, (1′R,2′R,3′S, 4′R,5′S)-4′-[2-Chloro-6-(trans-2-phenylcyclopropylamino)purine]-2′,3′-O-dihydroxybicyclo-[3.1.0]hexane]
binding to the A3AR (in words) [1]: nanomolar binding affinity
Ki [2]: 1790 nM
Ki [3]: 2010 nM

SMILES: OC1C(O)C(n2cnc3c(NCc4cccc(Br)c4)nc(Cl)nc32)C2CC12 (stereo not drawn) [Compound 109b, (1′R,2′R,3′S, 4′R,5′S)-4′42-Chloro-6-(3-bromobenzylamino)purine-1-2′,3′-O-dihydroxybicyclo-[3.1.0]hexane]
Ki [3]: 1600 nM

Ki [5]: 44.7 ± 5.7 µM
Selectivity A1/A3 [7]: 17
Ki [7]: 0.00172 ± 4e-05 µM
Ki [9]: 0.029 ± 0.0033 µM
SMILES: CNC(=O)[C@@]12C[C@@H]1[C@@H](n1cnc3c(NCc4cc(OC)ccc4OC)nc(Cl)nc31)[C@H](O)[C@@H]2O [Compound 17]
Ki [4]: 0.00087 µM
Ki [6]: 10 µM
Ki [8]: 0.0014 µM
Ki [10]: 1.6 µM

Ki [11]: 0.00076 µM
Ki [5]: 6.39 ± 0.87 µM
Selectivity A1/A3 [7]: 9.8
Ki [7]: 0.0009 ± 0.00022 µM
Ki [9]: 0.00879 ± 0.00012 µM
SMILES: CNC(=O)[C@@]12C[C@@H]1[C@@H](n1cnc3c(NCc4cccc(Br)c4)nc(Cl)nc31)[C@H](O)[C@@H]2O [Compound 14]
Ki [6]: 1.3 µM
Ki [10]: 0.27 µM

Ki [14]: 0.136 ± 0.022 µM
Ki [11]: 0.0011 µM
Ki [5]: 5.35 ± 0.86 µM
Ki [7]: 0.0008 ± 0.00014 µM
Ki [20]: 0.784 ± 0.097 µM
Ki [9]: 0.00732 ± 0.0015 µM
SMILES: CNC(=O)[C@@]12C[C@@H]1[C@@H](n1cnc3c(NCc4cccc(I)c4)nc(Cl)nc31)[C@H](O)[C@@H]2O [Compound 15]
% Efficacy hA3 [12]: 100%
Ki [13]: 136 ± 22 nM
Ki [15]: 5350 nM
Ki [16]: 0.0839 µM
Ki [17]: 1.66 µM
Ki [18]: 784 ± 97 nM
Ki [19]: 0.8 ± 0.14 nM
Ki [21]: 7.32 ± 1.5 nM

Ki [2]: 3000 nM
SMILES: COc1ccc(OC)c(CNc2nc(Cl)nc3c2ncn3C2C(O)C(O)C3CC32)c1 (stereo not drawn) [Compound 111b, (1′R,2′R,3′S, 4′R,5′S)-4′-[2-Chloro-6-(2,5-dimethoxybenzylamino)purine]-2′,3′-O-dihydroxybicyclo-[3.1.0]hexane]

Ki [14]: 2.01 ± 1.7 µM
Ki [7]: 0.049 ± 0.0039 µM
Ki [9]: 0.0553 ± 0.006 µM
SMILES: CNC(=O)[C@@]12C[C@@H]1[C@@H](n1cnc3c(NC)nc(Cl)nc31)[C@H](O)[C@@H]2O [Compound 12]
Ki [13]: 2100 ± 1700 nM
Ki [4]: 0.16 ± 0.03 µM
Ki [16]: 0.805 µM
Ki [17]: > 10 µM
A2A % inhib. ([6]; percent inhibition at 10 μM, data from Tchilibon et al.): (6%)^d,f
% inhibition hA2A ([18]; inhibition of radioligand binding at 10 μM, values from the literature): (6%)
Ki [19]: 49 ± 3.9 nM
Ki [21]: 55.3 ± 6 nM

Ki [14]: 0.7 ± 0.27 µM
% Efficacy at the human A3 AR [22]: 100^j %
Selectivity A1/A3 ([23]; human): up to 1900
Ki ([23]; read-out: A3 Ki, species H (human)): 0.0024 ± 0.0005 µM
Ki [20]: 6.2 ± 0.1 µM
SMILES: CNC(=O)[C@@]12C[C@@H]1[C@@H](n1cnc3c(NCc4cccc(I)c4)ncnc31)[C@H](O)[C@@H]2O [Compound 31]
% Efficacy hA3 [12]: 100%
Ki [13]: 700 ± 270 nM
Ki [24]: 2.4 ± 0.5 nM
Ki [18]: 6200 ± 100 nM
